Measured values taken from US8557848B2, “4,5-ring annulated indole derivatives for treating or preventing of HCV and related viral infections” (Merck Sharp & Dohme Corp., priority 2006, dated 2013).
pEC50, pIC50: −log10 of the molar value. Like-named read-outs stand apart in the source and are kept apart here.

Assays:
[1] = target: T1, HCV NS5B polymerase (NS5BΔCT21, from HCV-Con 1 isolate, genotype 1b) (Hepatitis C virus genotype 1b, UniProt Q9WMX2); assay: HCV NS5B Polymerase Inhibition Assay; type: biochemical
T1 construct: A soluble C-terminal 21-amino acid truncated NS5B enzyme form; polyhistidine (C); made in house; host or cells: Escherichia coli
Source text: A chemically synthesized 75-mer version, designated DCoH75, whose sequence matches the 3′-end of D-RNA, and DCoH75ddC, where the 3′-terminal cytidine of DCoH75 is replaced by dideoxycytidine, were used for assaying the NS5B enzyme activity as described in Ferrari et al., 12th International Symposium on HCV and Related Viruses, P-306 (2005). The sequence of the template RNA was: 5′-UGUGCCGGUCUUUCUGAACGGGAUAUAAACCUGGCCAGCUUCAUCGAACAAGUUGCCGUGUCUAUGACAUAGAUC-3′. A soluble C-terminal 21-amino acid truncated NS5B enzyme form (NS5BΔCT21, from HCV-Con 1 isolate, genotype 1b, Genbank accession number AJ238799) was produced and purified from Escherichia coli as C-terminal polyhistidine-tagged fusion protein as described in Ferrari et al., J. Virol. 73:1649-1654 (1999). A typical assay contained 20 mM Hepes pH 7.3, 10 mM MgCl2, 60 mM NaCl, 100 μg/ml BSA, 20 units/ml RNasin, 7.5 mM DTT, 0.1 μM ATP/GTP/UTP, 0.026 μM CTP, 0.25 mM GAU, 0.03 μM RNA template, 20 μCi/ml [^33P]-CTP, 2% DMSO, and 30 or 150 nM NS5B enzyme. Reactions were incubated at 22° C. for 2 hours, then stopped by adding 150 mM EDTA, washed in DE81 filter plate in 0.5M di-basic sodium phosphate buffer, pH 7.0, and counted using Packard TopCount after the addition of scintillation cocktail. Polynucleotide synthesis was monitored by the incorporation of radiolabeled CTP. The effect of the Compounds of Formula (I) on the polymerase activity was evaluated by adding various concentrations of a Compound of Formula (I), typically in 10 serial 2-fold dilutions, to the assay mixture. The starting concentrations ranged from 200 μM to 1 μM. An IC50 value for the inhibitor, defined as the compound concentration that provides 50% inhibition of polymerase activity, was determined by fitting the cpm data to the Hill equation Y=100/(1+10^((LogIC50-X)*HillSlope)), where X is the logarithm of compound concentration, and Y is the % inhibition. Ferrari et al., 12th International Symposium on HCV and Related Viruses, P-306 (2005) described in detail this assay procedure. It should be noted that such an assay as described is exemplary and not intended to limit the scope of the invention. The skilled practitioner can appreciate that modifications including but not limited to RNA template, primer, nucleotides, NS5B polymerase form, buffer composition, can be made to develop similar assays that yield the same result for the efficacy of the compounds and compositions described in the invention.
NS5B polymerase inhibition data for selected Compounds of Formula (I) is provided below in Table 2, wherein the compound numbers correspond to the compound numbering set forth in the above specification.

[2] = test system: HCV replicon cells (replicon RNA level); assay: Cell-Based HCV Replicon Assay; settings: Hepatitis C virus, 72 h; replicon RNA level by real time PCR (Taqman), cells harvested on day 3; read-out: EC50
Protocol: To measure cell-based anti-HCV activity of the a Compound of Formula (I), replicon cells were seeded at 5000 cells/well in 96-well collagen I-coated Nunc plates in the presence of the Compound of Formula (I). Various concentrations of a Compound of Formula (I), typically in 10 serial 2-fold dilutions, were added to the assay mixture, with the starting concentration ranging from 250 μM to 1 μM. The final concentration of DMSO was 0.5%, fetal bovine serum was 5%, in the assay media. Cells were harvested on day 3 by the addition of 1× cell lysis buffer (Ambion cat #8721). The replicon RNA level was measured using real time PCR (Taqman assay). The amplicon was located in 5B. The PCR primers were: 5B.2F, ATGGACAGGCGCCCTGA; 5B.2R, […]; the probe sequence was FAM-labeled CACGCCATGCGCTGCGG. GAPDH RNA was used as endogenous control and was amplified in the same reaction as NS5B (multiplex PCR) using primers and VIC-labeled probe recommended by the manufacturer (PE Applied Biosystem). The real-time RT-PCR reactions were run on ABI PRISM 7900HT Sequence Detection System using the following program: 48° C. for 30 min, 95° C. for 10 min, 40 cycles of 95° C. for 15 sec, 60° C. for 1 min. The ΔCT values (CT5B-CTGAPDH) were plotted against the concentration of test compound and fitted to the sigmoid dose-response model using XLfit4 (MDL). EC50 was defined as the concentration of inhibitor necessary to achieve ΔCT=1 over the projected baseline; EC90 the concentration necessary to achieve ΔCT=3.2 over the baseline. Alternatively, to quantitate the absolute amount of replicon RNA, a standard curve was established by including serially diluted T7 transcripts of replicon RNA in the Taqman assay. All Taqman reagents were from PE Applied Biosystems. Such an assay procedure was described in detail in e.g. Malcolm et al., Antimicrobial Agents and Chemotherapy 50: 1013-1020 (2006).
HCV Replicon assay data for selected Compounds of Formula (I) is provided below in Table 1, wherein the compound numbers correspond to the compound numbering set forth in the above specification.

[3] = NS5B polymerase inhibition, [33P]-CTP incorporation, 22° C. for 2 hours, read-out: IC50

Compound	pIC50 [1, 3]	pEC50 [2]	pIC50 [1]
O=C(O)c1c(-c2ccc[nH]c2=O)c2c3occc3c(F)cc2n1Cc1cc2nc[nH]c2cc1Cl [Compound 120]	> 7.60	> 6.30	–
CNC(=O)c1ccc(F)c(Cn2c(C(=O)O)c(-c3ccc[nH]c3=O)c3c4occc4c(F)cc32)c1 [Compound 121]	> 7.60	> 6.30	–
O=C(O)c1c(-c2ccc[nH]c2=O)c2c3occc3c(F)cc2n1Cc1cc2ccccc2nc1Cl [Compound 126]	–	> 6.30	> 7.60
O=C(O)c1c(-c2ccc[nH]c2=O)c2c3occc3c(F)cc2n1Cc1cc2c(=O)[nH]cnc2cc1F [Compound 127]	> 7.60	> 6.30	–
O=C(O)c1c(-c2ccccc2F)c2c3occc3c(F)cc2n1Cc1cc2ccccc2nc1Cl [Compound 128]	< 7.00	> 6.30	–
CCOC(=O)c1c(-c2ccc[nH]c2=O)c2c3occc3c(F)cc2n1Cc1cc(C(N)=O)ccc1F [Compound 130]	7.00 to 7.60	> 6.30	–
O=C(O)c1c(-c2ccc[nH]c2=O)c2c3occc3c(F)cc2n1Cc1cc2[nH]c(=O)[nH]c2cc1Cl [Compound 131]	> 7.60	> 6.30	–
Cc1cc2ccc3c(c(-c4ccc[nH]c4=O)c(C(=O)NS(C)(=O)=O)n3Cc3ccccc3F)c2o1 [Compound 132]	7.00 to 7.60	5.82 to 6.30	–
CS(=O)(=O)NC(=O)c1c(-c2ccc[nH]c2=O)c2c3occc3c(F)cc2n1Cc1ccnc(N)c1 [Compound 133]	> 7.60	> 6.30	–
CS(=O)(=O)NC(=O)c1c(-c2ccc[nH]c2=O)c2c3occc3c(F)cc2n1Cc1ccccc1F [Compound 134]	> 7.60	> 6.30	–
O=C(O)c1c(-c2ccc[nH]c2=O)c2c3occc3c(F)cc2n1Cc1cc(=O)[nH]cc1Br [Compound 135]	> 7.60	> 6.30	–
O=C(O)c1c(-c2ccc[nH]c2=O)c2c3occc3c(F)cc2n1Cc1nc(Br)ccc1F [Compound 136]	> 7.60	> 6.30	–
Cc1ccccc1Cn1c(C(=O)NS(=O)(=O)C2CC2)c(-c2ccc[nH]c2=O)c2c3occc3ccc21 [Compound 138]	> 7.60	> 6.30	–
Cc1ccc2cc(Cn3c(C(=O)O)c(-c4ccc[nH]c4=O)c4c5occc5c(F)cc43)c(Cl)nc2c1 [Compound 139]	> 7.60	> 6.30	–
Cc1ccc2nc(Cl)c(Cn3c(C(=O)O)c(-c4ccc[nH]c4=O)c4c5occc5c(F)cc43)cc2c1 [Compound 140]	> 7.60	> 6.30	–
O=C(NC1CC1)c1ccc(F)c(Cn2c(C(=O)O)c(-c3ccc[nH]c3=O)c3c4occc4c(F)cc32)c1 [Compound 141]	> 7.60	< 5.82	–
Cc1nn(C)c2nc(Cl)c(Cn3c(C(=O)O)c(-c4ccc[nH]c4=O)c4c5occc5c(F)cc43)cc12 [Compound 143]	> 7.60	> 6.30	–
O=C(O)c1c(-c2ccc[nH]c2=O)c2c3occc3c(F)cc2n1Cc1ccc2[nH]c(C(F)(F)F)nc2c1 [Compound 145]	> 7.60	5.82 to 6.30	–
Cc1cccc(Cn2c(C(=O)NS(C)(=O)=O)c(-c3ccc[nH]c3=O)c3c4occc4c(F)cc32)c1F [Compound 146]	> 7.60	> 6.30	–

Compound	pIC50 [1, 3]	pEC50 [2]	pIC50 [1]
Cc1cc2ccc3c(c(-c4ccc[nH]c4=O)c(C(=O)NS(C)(=O)=O)n3Cc3cc(F)ccc3F)c2o1 [Compound 147]	> 7.60	< 5.82	–
C[C@@H]1COc2c1ccc1c2c(-c2ccc[nH]c2=O)c(C(=O)NS(C)(=O)=O)n1Cc1cc(F)ccc1F [Compound 148]	> 7.60	> 6.30	–
CS(=O)(=O)NC(=O)c1c(-c2ccc[nH]c2=O)c2c3occc3c(F)cc2n1Cc1cc(F)ccc1F [Compound 150]	> 7.60	> 6.30	–
CS(=O)(=O)NC(=O)c1c(-c2ccc[nH]c2=O)c2c3occc3cc(F)c2n1Cc1cc(F)ccc1F [Compound 151]	> 7.60	5.82 to 6.30	–
Cc1ccc(Cn2c(C(=O)NS(=O)(=O)C3CC3)c(-c3ccc[nH]c3=O)c3c4occc4ccc32)c(C)c1 [Compound 152]	> 7.60	> 6.30	–
COc1ccc2cc(Cn3c(C(=O)O)c(-c4ccc[nH]c4=O)c4c5occc5c(F)cc43)c(Cl)nc2c1 [Compound 153]	> 7.60	> 6.30	–
COc1ccc2nc(Cl)c(Cn3c(C(=O)O)c(-c4ccc[nH]c4=O)c4c5occc5c(F)cc43)cc2c1 [Compound 154]	> 7.60	> 6.30	–
Cc1cccc(Cn2c(C(=O)NS(=O)(=O)C3CC3)c(-c3ccc[nH]c3=O)c3c4occc4ccc32)c1F [Compound 155]	> 7.60	> 6.30	–
CC(C)n1ncc2cc(Cn3c(C(=O)O)c(-c4ccc[nH]c4=O)c4c5occc5c(F)cc43)c(Cl)nc21 [Compound 156]	> 7.60	5.82 to 6.30	–
Cc1cccc(Cn2c(C(=O)NS(=O)(=O)C(C)C)c(-c3ccc[nH]c3=O)c3c4occc4ccc32)c1F [Compound 158]	> 7.60	5.82 to 6.30	–
O=C(O)c1c(-c2ccc[nH]c2=O)c2c3occ(Cl)c3c(F)cc2n1Cc1cc2ccccc2nc1Cl [Compound 159]	> 7.60	> 6.30	–
CS(=O)(=O)NC(=O)c1c(-c2ccc[nH]c2=O)c2c3occc3ccc2n1Cc1cc(C(N)=O)ccc1F [Compound 161]	> 7.60	> 6.30	–
O=C(NS(=O)(=O)C1CC1)c1c(-c2ccc[nH]c2=O)c2c3occc3c(F)cc2n1Cc1ccccc1F [Compound 162]	> 7.60	> 6.30	–
CC(C)S(=O)(=O)NC(=O)c1c(-c2ccc[nH]c2=O)c2c3occc3c(F)cc2n1Cc1ccccc1F [Compound 163]	> 7.60	> 6.30	–
O=C(NS(=O)(=O)C1CC1)c1c(-c2ccc[nH]c2=O)c2c3c(ccc2n1Cc1cc(F)ccc1F)CCO3 [Compound 164]	> 7.60	> 6.30	–
CS(=O)(=O)NC(=O)c1c(-c2ccc[nH]c2=O)c2c3occc3c(F)cc2n1Cc1csc(C(N)=O)c1 [Compound 165]	> 7.60	> 6.30	–
CS(=O)(=O)NC(=O)c1c(-c2ccc[nH]c2=O)c2c3c(c(F)cc2n1Cc1csc(C(N)=O)c1)CCO3 [Compound 167]	> 7.60	> 6.30	–
CSc1ccc2cc(Cn3c(C(=O)O)c(-c4ccc[nH]c4=O)c4c5occc5c(F)cc43)c(Cl)nc2c1 [Compound 168]	> 7.60	> 6.30	–
